Consider 11 molecules from paper PMC2120445 (The Journal of Cell Biology, 1995).

Where two headings read alike, the source gives them in different places. Where no end group is shown, it is not given here.

In one data set the test system is Schwann cells. Particulars: cited from earlier work; for promotion of Schwann cell proliferation: rat sciatic nerve Schwann cells in culture, ref Eccleston, 1992, Ratner et al., 1988.
In data set [1] the test system is Schwann cells (rat sciatic nerve). It counts as cell-based. The settings on record: for doubling time: estimated from BrdU incorporation.
Another data set relates to PDGF receptor. Particulars: ref Weinmaster and Lemke, 1990, cited from earlier work.
For data set [2], the system named is sciatic nerve fibroblasts. The experiment in a line: Proliferation of sciatic nerve fibroblasts induced by PDGF. It counts as cell-based, rat. Particulars: Kahn and Mudge, unpublished results.
Another data set has as its system erbB2 receptor. The settings on record: Schwann cells; ref Weinmaster and Lemke (1990), Mudge, 1993 (review); cited from earlier work.
The subject of data set [3] is Schwann cells (rat sciatic nerve). The class given is cell-based. Particulars: for BrdU incorporation compared with forskolin: agent alone, without PDGF, pulsatile regime; for doubling time / cells synthesizing DNA in 24 h: in the presence of PDGF; for doubling time: estimated from cells synthesizing DNA; for cells synthesizing DNA in 24 h: increased from 10%, Discussion.

A further data set relates to cultured Schwann cells. Particulars: ref Yasuda et al., 1988; cited from earlier work.
For data set [4], the system named is Schwann cells (rat sciatic nerve). It counts as cell-based. The settings on record: for attenuation (desensitization) of cAMP response with time: Schwann cells, even in the presence of IBMX.
The test system of data set [5] is sciatic nerve fibroblasts. The experiment in a line: Intracellular cAMP accumulation in sciatic nerve fibroblasts. It counts as cell-based, rat. The settings on record: for dependence of cAMP effect on culture age: with IBMX, 2 d versus 7 d cultures, Fig. 2.
Another data set concerns macrophages. The settings on record: ref Wiik, 1989; Vignery et al., 1991; cited from earlier work.
Data set [6] concerns neutral endopeptidase 24.11. The settings on record: ref Davies et al., 1992; Turner, A. J., personal communication; cited from earlier work.
The mark [7] stands for this setting: cultured Schwann cells, ref Raff et al., 1978a,b, Ridley et al., 1989, Davis and Stroobant, 1990, Weinmaster and Lemke, Chen et al., 1991, Stewart et al., Goodearl et al., 1993, Marchionni et al.
[8] abbreviates: with 10 ng/ml PDGF-BB, pulsatile, Fig. 6 b.

With `CCCC(=O)Nc1ncnc2c1ncn2[C@@H]1O[C@@H]2COP(=O)(O)O[C@H]2[C@H]1OC(=O)CCC` [dibutyryl cAMP], in the data set with Schwann cells (setting [7]), the “potentiation of response to growth factors” value (from here on “potentiation of response”) was “greatly potentiated”.
Turning to `C=C[C@@]1(C)CC(=O)[C@]2(O)[C@@]3(C)[C@@H](O)CCC(C)(C)[C@@H]3[C@H](O)[C@H](OC(C)=O)[C@@]2(C)O1` [forskolin], in data set [1] (1 µM forskolin with PDGF, continuous), the doubling time was ~ 2 d. Besides, in data set [1] (1 µM forskolin with PDGF, continuous, range in at least 10 different experiments), the “Schwann cells incorporating BrdU in 24 h” value is given as 40-60%. Moreover, in the data set with Schwann cells (1 µM forskolin and PDGF, ref Stewart et al., 1991), the DNA synthesis entry is recorded as “no DNA synthesis”. Besides, in the data set with Schwann cells (PDGF and 10 µM forskolin, ref Stewart et al., 1991), the “cells incorporating BrdU in 24 h” value is 6%. Further, the “potentiation of response” value in the data set with Schwann cells (setting [7]) is given as “greatly potentiated”. Further, in the data set with PDGF receptor, the “synthesis of PDGF beta receptor” value is “increased synthesis” and the “treatment time required to increase PDGF beta receptor mRNA” value was 12 to 24 h. Besides, the “effect of a single 3-h pulse on PDGF beta receptor mRNA” value in the data set with PDGF receptor (single 3-h pulse) is “ineffective”. The “effect on PDGF-induced proliferation of fibroblasts” value in data set [2] is recorded as “inhibits the proliferation of sciatic nerve fibroblasts induced by PDGF”. Moreover, the erbB2 receptor expression entry in the data set with erbB2 receptor is “upregulated”. Besides, the “increase in BrdU incorporation, together with PDGF” value in [3] (fold, with 10 ng/ml PDGF-BB, pulsatile, every 3 h with 3-h wash-out, Fig. 6 b) is “eightfold”. Moreover, the “type of interaction with PDGF” value in data set [3] (setting [8]) is reported as “synergistic”.
For `CC(C)NCC(O)c1ccc(O)c(O)c1` (stereo not shown) [isoproterenol], in the data set on cultured Schwann cells, the “plateau of cAMP effect” value is given as “did not plateau even at 10-4 M”. Further, the “BrdU incorporation compared with forskolin” value in [3] (Fig. 6 b) is reported as “comparable to the effect of forskolin”. Further, in data set [3] (pulsatile), the doubling time is recorded as ~ 4 d and the “cells synthesizing DNA in 24 h” value is listed as about 25%. Besides, the “type of interaction with PDGF” value in [3] (setting [8]) is on record as “simply additive”. Further, in data set [4] (3-d versus 8-d cells, 5 min, Fig. 1), the “dependence of cAMP response on culture age” value is recorded as “more pronounced in 8-d cells”. For the same molecule, the “attenuation (desensitization) of cAMP response with time” value in [4] (Fig. 4 a) is “declined with time in similar fashion to the CGRP response”.
Take “FGF-1: growth factor, literature mitogen”: the “promotion of Schwann cell proliferation” value with Schwann cells is on record as “promote the proliferation”.
Consider “FGF-2: growth factor, literature mitogen”, for which the “promotion of Schwann cell proliferation” value in the data set with Schwann cells is on record as “promote the proliferation”.
With calcitonin gene-related peptide [CGRP], in data set [5] (compared with Schwann cells, 5 x 10-s M CGRP (so in the source), 200 µM IBMX, Fig. 4 b), the “attenuation of cAMP response” value is “even more rapid”. In the data set on macrophages, the cAMP in macrophages entry was “increase cAMP levels in macrophages”. Moreover, the “BrdU incorporation compared with forskolin” value in data set [3] (Fig. 6 b) is “comparable to the effect of forskolin”. For the same molecule, in [3] (pulsatile), the doubling time is ~ 4 d and the “cells synthesizing DNA in 24 h” value was about 25%. Moreover, the “type of interaction with PDGF” value in data set [3] (setting [8]) was “synergistic”. For the same molecule, the “effect together with PDGF compared with forskolin and PDGF” value in data set [3] (with PDGF, pulsatile, Fig. 6 b) was “as effective as forskolin and PDGF”. Further, in [4] (10^-8 M CGRP), the “desensitization at lower dose” value was “desensitization was reduced with this dose”. Moreover, the “magnitude of cAMP response” value in [4] (5 min with 5 x 10^-8 M CGRP without IBMX, Discussion) was 8-10 fold. For the same molecule, the “attenuation (desensitization) of cAMP response with time” value in data set [4] (Fig. 4 a) is “declined rapidly, even in the presence of IBMX”. The “cAMP over basal after 1 h” value in data set [4] (maximal dose of CGRP, declined even in the presence of IBMX, Fig. 4 a) is “twofold”. Further, in [4] (maximal dose of CGRP, without IBMX, high density, 4 d in defined medium, Fig. 4 a), the “increase in cAMP over basal after 5 min” value is on record as “eightfold”. For the same molecule, the “activity of CGRP after 3 h incubation with Schwann cells” value in data set [4] (medium from Schwann cells incubated with CGRP for 3 h transferred to fresh cultures, 5 min, Fig. 5) is on record as “a comparable stimulation of cAMP”. Besides, the “substrate of neutral endopeptidase 24.11” value in data set [6] was “very good substrate”.
As for cholera toxin, the “potentiation of response” value with Schwann cells is listed as “greatly potentiated”.
For glial growth factor [GGF], the “promotion of Schwann cell proliferation” value in the data set on Schwann cells is listed as “promote the proliferation”. For the same molecule, the “mitogenicity without forskolin / enhancement of GGF effect” value in the data set with Schwann cells (ref Davis and Stroobant, 1990, Goodearl et al., 1993, Marchionni et al.) is “is a mitogen without forskolin”.
On to peptide histidine-isoleucine [PHI], for which the “dependence of cAMP effect on culture age” value in data set [5] is given as “only seen in the older cultures”.
“vasoactive intestinal peptide (HSDAVFTDNYTRLRKQMAVKKYLNSILN; ends and bridges not checked; UniProt P01282 125-152, looked up) [VIP]”: the “plateau of cAMP effect” value in the data set on cultured Schwann cells is listed as “did not plateau even at 10-4 M”. Also, the “dependence of cAMP effect on culture age” value in data set [5] is given as “only seen in the older cultures”. Besides, the cAMP in macrophages entry in the data set with macrophages is on record as “increase cAMP levels in macrophages”.

B1: PDGF: Recombinant human PDGF-BB purchased from R&D Systems (protein, UniProt P01127 82-190, looked up)
Platelet-derived growth …: SLGSLTIAEPAMIAECKTRTEVFEISRRLIDRTNANFLVWPPCVEVQRCSGCCNNRNVQCRPTQVQLRPVQVRKIEIVRKKPIFKKATVTLEDHLACKCETVAAARPVT
B1: in data set [1] (PDGF alone), the doubling time was 10 days. Further, in data set [1] (defined medium with PDGF alone (before forskolin), Discussion), the “Schwann cells incorporating BrdU in 24 h” value is given as 10%. The “promotion of Schwann cell proliferation” value in the data set on Schwann cells was “promote the proliferation”.
